# According to US10519143B2, “Substituted-indole-compounds as estrogen receptor down-regulators” (LUOXIN PHARMACEUTICAL (SHANGHAI) CO., LTD, priority 2016, dated 2019):
# Read-outs that look alike come from different tables or passages of the source.
# Columns and labels:
# [1] = in vivo PK properties (cassette PK); conditions: plasma; for AUC(0-t): read-out: AUC0-last (nm/hr); for Vd: read-out: Vdss
# [2] = system: MCF-7 breast cancer cell xenograft; assay: antitumor activity on MCF-7 breast cancer cell xenograft model; format: in vivo, BALB/c nude mice; conditions: for T/C (%) / TGI (%) / tumor volumn (mm^3) 17th day after grouping: oral, once a day, ARN-810 10/30 mg/kg, I-1 30 mg/kg; for T/C (%) / TGI (%): 17th day after grouping; for tumor volumn (mm^3) 17th day after grouping: Mean ± SEM
# Description: Mice were inoculated subcutaneously with 0.36 mg estrogen sustained release tablet (60 days release) on the left shoulder three days before inoculation. When cells were in the logarithmic growth phase, cells were harvested, counted and adjusted to 10×10^7 cells/mL, then an equal volume of Matrigel was added, mixing for inoculation. 0.2 mL MCF-7 tumor cell suspension (10×10^6) was inoculated subcutaneously into the right shoulder of each mouse. On the 7th day after tumor cell inoculation, mice were grouped and administrated once a day, with an average tumor volume of 169 mm^3 and a body weight of 23.33 g. Tumor volume and body weight were measured twice a week after grouping, and the tumor growth rate (T/C) and tumor growth inhibition rate (TGI) were calculated based on the last measuring data on the 17th day after grouping.
# [3] = drug distribution in tissues (plasma, tumor, brain); format: in vivo, mice; conditions: for AUC0-last (nmol · h/kg) brain / AUC0-last (nmol · h/kg) plasma / AUC0-last (nmol · h/kg) tumor: dose 67.3 μmol/kg, 20th day after grouping
# Description: On the 20th day after grouping, the sample was collected from plasma, tumor, breast and brain of the mice at four time points (2-3 mice each time point) which was respectively 0.5 hour, 1.5 hours, 6 hours and 24 hours after administration. The blood (0.5 mL) was collected using a 1.5 mL EDTA-K2 anticoagulation tube, immediately centrifuged at 4000 rpm, 4° C. for 10 minutes to prepare plasma, the plasma sample was stored at −80° C. for determination of drug concentration. The tumor was collected using a 2 mL cryotube, and the brain was collected using a 5 mL cryotube, the samples were immediately put into liquid nitrogen for quike freeze. All samples were stored at −80° C. for determination of drug concentration after sampling. The result was converted based on corresponding AUC to compare the drug distribution.
# MCF-7 cells = assay: MCF-7 cell proliferation inhibition assay; format: cell-based; conditions: Homo sapiens, MCF7, 144 h; MCF-7 cells, 6 days incubation, CellTiter-Glo; read-out: anti-proliferation in MCF-7 cells
# Description: Experimental Reagent: RPMI 1640 medium, fetal bovine serum, Promega CellTiter-Glo reagent. The cell line MCF-7 was purchased from The European Collection of Authenticated Cell Cultures (ECACC). Envision Multilabel Reader (PerkinElmer). Experimental Method: […] The cell plate was placed in a carbon dioxide incubator overnight. […] The cell plate was incubated in a carbon dioxide incubator for 6 days. Promega CellTiter-Glo reagent was added to the cell plate at 25 μL per well, cells were incubated for 10 minutes at room temperature to stabilize the luminescence signal, which was measured using PerkinElmer Envision Multilabel Reader. Data Analysis: […] (Model 205 in XLFIT5, iDBS)
# [4] = plasma protein binding rate (Human); format: in vitro ADME
# [5] = plasma protein binding rate (CD-1 mouse); format: in vitro ADME
# CYP 1A2 = molecular target: T1, CYP 1A2 (Homo sapiens, UniProt P05177); assay: inhibition of CYP enzymes 1A2; format: in vitro ADME
# T1 sequence (P05177 1-516): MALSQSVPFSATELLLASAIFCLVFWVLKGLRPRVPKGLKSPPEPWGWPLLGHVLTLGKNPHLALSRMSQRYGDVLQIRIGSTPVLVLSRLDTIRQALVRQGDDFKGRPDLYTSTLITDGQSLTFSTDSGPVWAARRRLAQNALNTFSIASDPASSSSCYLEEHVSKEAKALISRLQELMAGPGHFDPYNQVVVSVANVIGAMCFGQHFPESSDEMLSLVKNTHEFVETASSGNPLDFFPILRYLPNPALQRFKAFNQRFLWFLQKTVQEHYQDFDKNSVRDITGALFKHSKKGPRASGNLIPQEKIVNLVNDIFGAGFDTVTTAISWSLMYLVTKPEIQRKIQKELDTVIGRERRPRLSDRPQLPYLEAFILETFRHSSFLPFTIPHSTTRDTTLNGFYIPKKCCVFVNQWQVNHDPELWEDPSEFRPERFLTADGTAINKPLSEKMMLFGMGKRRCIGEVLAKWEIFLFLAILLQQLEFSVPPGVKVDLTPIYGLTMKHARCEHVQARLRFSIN
# CYP 2C9 = CYP 2C9 (Homo sapiens, UniProt P11712); assay: inhibition of CYP enzymes 2C9; format: in vitro ADME
# CYP 2C19 = CYP 2C19 (Homo sapiens, UniProt P33261); assay: inhibition of CYP enzymes 2C19; format: in vitro ADME
# CYP 2D6 = CYP 2D6 (Homo sapiens, UniProt P10635); assay: inhibition of CYP enzymes 2D6; format: in vitro ADME
# CYP 3A4 = CYP 3A4 (Homo sapiens, UniProt P08684); assay: inhibition of CYP enzymes 3A4; format: in vitro ADME
# [6] = prior art statement; cited from earlier work
# breast cancer = conditions: intramuscular injection, prior art statement; cited from earlier work
# Sequence of CYP 3A4 (P08684 whole entry): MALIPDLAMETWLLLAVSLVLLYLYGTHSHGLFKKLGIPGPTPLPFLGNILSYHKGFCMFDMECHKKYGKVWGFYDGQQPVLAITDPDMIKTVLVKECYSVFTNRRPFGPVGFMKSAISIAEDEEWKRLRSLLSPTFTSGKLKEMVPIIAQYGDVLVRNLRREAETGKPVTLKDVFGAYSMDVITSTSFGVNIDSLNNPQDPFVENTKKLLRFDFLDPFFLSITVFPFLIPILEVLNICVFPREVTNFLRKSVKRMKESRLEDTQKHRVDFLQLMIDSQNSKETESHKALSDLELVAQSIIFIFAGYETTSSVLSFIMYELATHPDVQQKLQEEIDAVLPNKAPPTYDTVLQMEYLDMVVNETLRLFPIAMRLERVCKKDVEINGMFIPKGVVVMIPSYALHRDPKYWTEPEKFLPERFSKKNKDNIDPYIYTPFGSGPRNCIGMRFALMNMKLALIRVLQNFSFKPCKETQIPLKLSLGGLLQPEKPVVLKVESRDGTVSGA
# Sequence of CYP 2D6 (P10635 whole entry): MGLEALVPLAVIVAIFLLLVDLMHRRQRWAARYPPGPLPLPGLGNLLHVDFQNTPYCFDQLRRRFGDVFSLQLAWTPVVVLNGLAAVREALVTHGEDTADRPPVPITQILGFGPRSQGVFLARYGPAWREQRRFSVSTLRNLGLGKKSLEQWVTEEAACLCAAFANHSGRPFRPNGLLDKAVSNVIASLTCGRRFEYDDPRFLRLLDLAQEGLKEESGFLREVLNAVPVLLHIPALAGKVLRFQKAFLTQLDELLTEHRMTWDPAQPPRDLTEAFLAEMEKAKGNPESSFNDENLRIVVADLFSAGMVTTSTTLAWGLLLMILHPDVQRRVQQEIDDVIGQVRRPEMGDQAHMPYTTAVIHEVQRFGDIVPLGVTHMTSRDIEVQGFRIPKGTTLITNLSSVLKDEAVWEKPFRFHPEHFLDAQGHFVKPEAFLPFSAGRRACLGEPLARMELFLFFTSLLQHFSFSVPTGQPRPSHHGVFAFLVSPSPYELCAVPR
# Sequence of CYP 2C9 (P11712 whole entry): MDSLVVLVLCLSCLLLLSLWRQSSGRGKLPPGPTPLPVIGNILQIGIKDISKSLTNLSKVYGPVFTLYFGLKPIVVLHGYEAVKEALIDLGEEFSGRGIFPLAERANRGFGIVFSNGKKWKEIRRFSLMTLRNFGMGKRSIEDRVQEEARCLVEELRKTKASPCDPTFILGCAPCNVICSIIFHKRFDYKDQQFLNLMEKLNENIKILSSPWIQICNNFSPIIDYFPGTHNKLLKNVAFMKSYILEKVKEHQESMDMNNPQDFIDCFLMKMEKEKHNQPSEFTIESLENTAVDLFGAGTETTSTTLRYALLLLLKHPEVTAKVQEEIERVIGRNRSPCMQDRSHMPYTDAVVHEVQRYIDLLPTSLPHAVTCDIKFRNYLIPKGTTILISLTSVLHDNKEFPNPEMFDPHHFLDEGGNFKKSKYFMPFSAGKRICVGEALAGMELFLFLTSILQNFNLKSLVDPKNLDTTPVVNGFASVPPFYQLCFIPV
# Sequence of CYP 2C19 (P33261 whole entry): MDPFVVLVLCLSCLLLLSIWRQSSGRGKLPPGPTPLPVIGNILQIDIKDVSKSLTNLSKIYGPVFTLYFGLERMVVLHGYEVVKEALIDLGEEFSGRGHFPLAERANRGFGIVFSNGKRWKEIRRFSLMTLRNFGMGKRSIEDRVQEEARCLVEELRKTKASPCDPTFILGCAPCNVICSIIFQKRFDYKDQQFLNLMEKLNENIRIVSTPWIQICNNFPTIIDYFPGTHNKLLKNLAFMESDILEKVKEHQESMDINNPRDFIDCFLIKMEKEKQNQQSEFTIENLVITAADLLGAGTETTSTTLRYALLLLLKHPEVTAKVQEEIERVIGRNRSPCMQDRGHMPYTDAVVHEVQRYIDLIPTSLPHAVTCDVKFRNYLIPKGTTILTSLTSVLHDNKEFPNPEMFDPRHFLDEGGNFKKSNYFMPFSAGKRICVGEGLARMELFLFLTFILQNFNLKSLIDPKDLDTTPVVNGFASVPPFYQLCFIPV
SMILES,"C0 ([1]; iv, 1 mg/kg, i.V. 1 mpk)","clearance ([1]; iv, 1 mg/kg, i.V. 1 mpk)","half-life ([1]; iv, 1 mg/kg, i.V. 1 mpk)","AUC(0-t) ([1]; iv, 1 mg/kg, i.V. 1 mpk)","Vd ([1]; iv, 1 mg/kg, i.V. 1 mpk)","Cmax ([1]; po, 2.5 mg/kg, P.O 2.5 mpk)","Tmax ([1]; po, 2.5 mg/kg, P.O 2.5 mpk)","bioavailability ([1]; po, 2.5 mg/kg, P.O 2.5 mpk)","half-life ([1]; po, 2.5 mg/kg, P.O 2.5 mpk)","AUC(0-t) ([1]; po, 2.5 mg/kg, P.O 2.5 mpk)",T/C (%) [2],TGI (%) [2],tumor volumn (mm^3) 17th day after grouping [2],AUC0-last (nmol · h/kg) brain [3],AUC0-last (nmol · h/kg) plasma [3],AUC0-last (nmol · h/kg) tumor [3],also measured
"CC/C(=C(/c1ccc(/C=C/C(=O)O)cc1)c1ccc2[nH]ncc2c1)c1ccc(F)cc1Cl [ARN-810, reference compound]",1640 nM,18.9 mL/min/kg,1.35 h,1.99 µM·h,1.93 L/kg,924 nM,0.417 h,66%,3.49 h,3.28 µM·h,43.4%,75.7%,290 ± 38 mm^3,3490 nmol·h/kg,33545 nmol·h/kg,11368 nmol·h/kg,–
CC/C(=C(/c1ccc(/C=C/C(=O)O)cc1)c1cc2ccccc2[nH]1)c1ccc(F)cc1Cl [Compound I-1],3480 nM,3.61 mL/min/kg,2.81 h,10.4 µM·h,0.992 L/kg,2150 nM,3.33 h,70.6%,3.18 h,18.3 µM·h,30.1%,93.6%,201 ± 27 mm^3,43167 nmol·h/kg,118937 nmol·h/kg,55487 nmol·h/kg,IC50 (MCF-7 cells): 0.0385 µM; fraction unbound [4]: 0.028; fraction unbound [5]: 0.012; IC50 (CYP 1A2): 25.5 µM; IC50 (CYP 2C9): 10.1 µM; IC50 (CYP 2C19): 40.4 µM; IC50 (CYP 2D6): 43.4 µM; IC50 (CYP 3A4): 25.1 µM; antitumor activity compared with ARN-810 ([2]; oral I-1 30 mg/kg versus oral ARN-810 10/30 mg/kg): superior; distribution in brain tissue compared with ARN-810 ([3]; brain tissue): much better; distribution in tumor tissue compared with ARN-810 ([3]; tumor tissue): much better
C[C@]12CC[C@@H]3c4ccc(O)cc4C[C@@H](CCCCCCCCC[S+]([O-])CCCC(F)(F)C(F)(F)F)[C@H]3[C@@H]1CC[C@@H]2O (stereo partly drawn) [fulvestrant],–,–,–,–,–,–,–,–,–,–,–,–,–,–,–,–,oral bioavailability [6]: zero; breast cancer patients showing clinical response (breast cancer): about 50%
